Source: patent US11505543B2, “4-oxo-3,4-dihydroquinazoline compounds as inhibitors of human immunodeficiency virus replication” (VIIV HEALTHCARE UK (NO.5) LIMITED, priority 2018, dated 2022)

What was measured:
[1] = test system: recombinant NL4-3 virus (nef section replaced with Renilla luciferase gene) in MT-2 cells; assay: HIV cell culture assay (antiviral activity, luciferase readout); format: cell-based; conditions: serial dilutions of compound
Method in brief: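 Test compound in serial dilution was present while MT-2 cells were infected for 4–5 days with recombinant NL4-3 virus made in 293T cells. Antiviral activity was quantified as Renilla luciferase activity, read with a live-cell substrate. EC50 came from the median-effect equation.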

[2] = Compound cytotoxicity, XTT-based colorimetric assay; format: cell-based; conditions: human, uninfected MT2 cells, day 4, XTT
Method in brief: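 Run under the antiviral-assay protocol but without virus. Viability was read on day 4 and CC50 values were derived from the readout.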

[3] = Renilla, NL43, MT-2 cells infected for 4-5 days with recombinant NL4-3 Renilla luciferase virus
[4] = MT-2 cells infected for 4-5 days with recombinant NL4-3 Renilla luciferase virus

**Q.** With `COc1cc(C)nc(-c2ccc3c(=O)n(-c4ccc(Cl)c5c(NS(C)(=O)=O)nn(C)c45)c([C@H](Cc4cc(F)cc(F)c4)NC(=O)Cn4nc(C(F)F)c5c4C(F)(F)[C@@H]4C[C@H]54)nc3c2)n1` (atropisomer, axis not shown; (aR)) [Example 131, N-((S)-1-(3-(4-chloro-1-methyl-3-(methylsulfonamido)-1H-indazol-7-yl)-7-(4-methoxy-6-methylpyrimidin-2-yl)-4-oxo-3,4-dihydroquinazolin-2-yl)-2-(3,5-difluorophenyl)ethyl)-2-((3bS,4aR)-3-(difluoromethyl)-5,5-difluoro-3b,4,4a,5-tetrahydro-1H-cyclopropa[3,4]cyclopenta[1,2-c]pyrazol-1-yl)acetamide] as the compound, how does the EC50 [1, 3] read?
**A.** 0.11 nM

**Q.** And the CC50 at 4 day [2]?
**A.** > 500 nM

**Q.** With `Cn1nc(NS(C)(=O)=O)c2c(Cl)ccc(-n3c(C(Cc4cc(F)cc(F)c4)NC(=O)Cn4nc(C(F)F)c5c4C(F)(F)[C@@H]4C[C@H]54)nc4cc(-c5ccccc5F)ccc4c3=O)c21` (single isomer, unassigned) [Example 1] as the compound, how does the EC50 [1, 3] read?
**A.** 209 nM

**Q.** What about the CC50 at 4 day [2] of the same compound?
**A.** > 1000 nM

**Q.** Which EC50 [1, 3] does the source give for `Cn1nc(NS(C)(=O)=O)c2c(Cl)ccc(-n3c([C@H](Cc4cc(F)cc(F)c4)NC(=O)Cn4nc(C(F)F)c5c4C(F)(F)[C@@H]4C[C@H]54)nc4cc(-c5ccccc5F)ccc4c3=O)c21` (single isomer, unassigned) [Example 2] here?
**A.** 0.53 nM

**Q.** What about the CC50 at 4 day [2] of the same compound?
**A.** > 1000 nM

**Q.** For `Cn1nc(NS(C)(=O)=O)c2c(Cl)ccc(-n3c([C@H](Cc4cc(F)cc(F)c4)NC(=O)Cn4ccc(C5CC5)n4)nc4cc(-c5ccccc5F)ccc4c3=O)c21` (single isomer, unassigned) [Example 3], which EC50 [1, 4] is on record?
**A.** 63.1 nM

**Q.** What about the CC50 at 4 day [2] of the same compound?
**A.** > 1000 nM

**Q.** Which EC50 [1, 4] does the source give for `CC(C(=O)N[C@@H](Cc1cc(F)cc(F)c1)c1nc2cc(-c3ccccc3F)ccc2c(=O)n1-c1ccc(Cl)c2c(NS(=O)(=O)C3CC3)nn(CC(F)F)c12)n1ccc(C2CC2)n1` (single isomer, unassigned) [Example 133] here?
**A.** 1.6 nM

**Q.** And the CC50 at 4 day [2]?
**A.** > 500 nM

**Q.** With `Cc1c(-c2ccc3c(=O)n(-c4ccc(Cl)c5c(NS(C)(=O)=O)nn(C)c45)c([C@H](Cc4cc(F)cc(F)c4)NC(=O)Cn4nc(C(F)F)c5c4C(F)(F)[C@@H]4CC54)nc3c2)cc(F)c2c1CCCO2` (stereo in doubt) [Example 53, N-((S)-1-(3-(4-chloro-1-methyl-3-(methylsulfonamido)-1H-indazol-7-yl)-7-(8-fluoro-5-methylchroman-6-yl)-4-oxo-3,4-dihydroquinazolin-2-yl)-2-(3,5-difluorophenyl)ethyl)-2-((3bS,4aR)-3-(difluoromethyl)-5,5-difluoro-3b,4,4a,5-tetrahydro-1H-cyclopropa[3,4]cyclopenta[1,2-c]pyrazol-1-yl)acetamide] as the compound, how does the EC50 [1, 3] read?
**A.** 2.1 nM

**Q.** And the CC50 at 4 day [2]?
**A.** > 1000 nM

**Q.** With `CC(C)c1ccc(-n2c([C@H](Cc3cc(F)cc(F)c3)NC(=O)Cn3nc(C(F)F)c4c3C(F)(F)[C@@H]3C[C@H]43)nc3cc(-c4nnn[nH]4)ccc3c2=O)cn1` [Example 7, 2-((3bS,4aR)-3-(difluoromethyl)-5,5-difluoro-3b,4,4a,5-tetrahydro-1H-cyclopropa[3,4]cyclopenta[1,2-c]pyrazol-1-yl)-N-((S)-2-(3,5-difluorophenyl)-1-(3-(6-isopropylpyridin-3-yl)-4-oxo-7-(1H-tetrazol-5-yl)-3,4-dihydroquinazolin-2-yl)ethyl)acetamide] as the compound, how does the EC50 [1, 3] read?
**A.** 4130 nM

**Q.** And the CC50 at 4 day [2]?
**A.** > 1000 nM

**Q.** Which EC50 [1, 3] does the source give for `O=C(Cn1ccc(C2CC2)n1)N[C@@H](Cc1cc(F)cc(F)c1)c1nc2cc(-c3ccc(F)cc3F)ccc2c(=O)n1-c1ccc(S(=O)(=O)N2CCOCC2)cc1` [Example 12, (S)-2-(3-cyclopropyl-1H-pyrazol-1-yl)-N-(2-(3,5-difluorophenyl)-1-(7-(2,4-difluorophenyl)-3-(4-(morpholinosulfonyl)phenyl)-4-oxo-3,4-dihydroquinazolin-2-yl)ethyl)acetamide] here?
**A.** 8.3 nM

**Q.** What about the CC50 at 4 day [2] of the same compound?
**A.** > 1000 nM

**Q.** With `Cc1cc(Cl)ccc1-c1ccc2c(=O)n(-c3ccc(S(=O)(=O)N4CCOCC4)cc3)c([C@H](Cc3cc(F)cc(F)c3)NC(=O)Cn3nc(C(F)F)c4c3C(F)(F)[C@@H]3C[C@H]43)nc2c1` [Example 15, N-((S)-1-(7-(4-chloro-2-methylphenyl)-3-(4-(morpholinosulfonyl)phenyl)-4-oxo-3,4-dihydroquinazolin-2-yl)-2-(3,5-difluorophenyl)ethyl)-2-((3bS,4aR)-3-(difluoromethyl)-5,5-difluoro-3b,4,4a,5-tetrahydro-1H-cyclopropa[3,4]cyclopenta[1,2-c]pyrazol-1-yl)acetamide] as the compound, how does the EC50 [1, 3] read?
**A.** 43 nM

**Q.** And the CC50 at 4 day [2]?
**A.** > 1000 nM

**Q.** Which EC50 [1, 3] does the source give for `O=C(Cn1ccc(C2CC2)n1)N[C@@H](Cc1cc(F)cc(F)c1)c1nc2cc(-c3cc(F)ccc3F)ccc2c(=O)n1-c1ccc(S(=O)(=O)N2CCOCC2)cc1` [Example 19, (S)-2-(3-cyclopropyl-1H-pyrazol-1-yl)-N-(2-(3,5-difluorophenyl)-1-(7-(2,5-difluorophenyl)-3-(4-(morpholinosulfonyl)phenyl)-4-oxo-3,4-dihydroquinazolin-2-yl)ethyl)acetamide] here?
**A.** 8.9 nM

**Q.** What about the CC50 at 4 day [2] of the same compound?
**A.** > 1000 nM

**Q.** For `O=C(Cn1ccc(C2CC2)n1)N[C@@H](Cc1cc(F)cc(F)c1)c1nc2cc(-c3cccnc3)ccc2c(=O)n1-c1ccc(S(=O)(=O)N2CCOCC2)cc1` [Example 20, (S)-2-(3-cyclopropyl-1H-pyrazol-1-yl)-N-(2-(3,5-difluorophenyl)-1-(3-(4-(morpholinosulfonyl)phenyl)-4-oxo-7-(pyridin-3-yl)-3,4-dihydroquinazolin-2-yl)ethyl)acetamide], which EC50 [1, 3] is on record?
**A.** 3.7 nM

**Q.** And the CC50 at 4 day [2]?
**A.** > 1000 nM

**Q.** For `O=C(Cn1nc(C(F)F)c2c1C(F)(F)[C@@H]1C[C@H]21)N[C@@H](Cc1cc(F)cc(F)c1)c1nc2cc(-c3ccc(F)cc3F)ccc2c(=O)n1-c1ccc(S(=O)(=O)N2CCOCC2)cc1` [Example 22, 2-((3bS,4aR)-3-(difluoromethyl)-5,5-difluoro-3b,4,4a,5-tetrahydro-1H-cyclopropa[3,4]cyclopenta[1,2-c]pyrazol-1-yl)-N-((S)-2-(3,5-difluorophenyl)-1-(7-(2,4-difluorophenyl)-3-(4-(morpholinosulfonyl)phenyl)-4-oxo-3,4-dihydroquinazolin-2-yl)ethyl)acetamide], which EC50 [1, 3] is on record?
**A.** 7.9 nM

**Q.** What about the CC50 at 4 day [2] of the same compound?
**A.** > 1000 nM

**Q.** Which EC50 [1, 3] does the source give for `O=C(Cn1nc(C(F)F)c2c1C(F)(F)[C@@H]1C[C@H]21)N[C@@H](Cc1cc(F)cc(F)c1)c1nc2cc(-c3cccnc3)ccc2c(=O)n1-c1ccc(S(=O)(=O)N2CCOCC2)cc1` [Example 24, 2-((3bS,4aR)-3-(difluoromethyl)-5,5-difluoro-3b,4,4a,5-tetrahydro-1H-cyclopropa[3,4]cyclopenta[1,2-c]pyrazol-1-yl)-N-((S)-2-(3,5-difluorophenyl)-1-(3-(4-(morpholinosulfonyl)phenyl)-4-oxo-7-(pyridin-3-yl)-3,4-dihydroquinazolin-2-yl)ethyl)acetamide] here?
**A.** 4.3 nM

**Q.** And the CC50 at 4 day [2]?
**A.** > 1000 nM

**Q.** What does the source list for `O=C(Cn1nc(C(F)F)c2c1C(F)(F)[C@H]1C[C@@H]21)N[C@@H](Cc1cc(F)cc(F)c1)c1nc2cc(-c3ncccn3)ccc2c(=O)n1-c1ccc(S(=O)(=O)N2CCOCC2)cc1` [Example 27, 2-((3bR,4aS)-3-(difluoromethyl)-5,5-difluoro-3b,4,4a,5-tetrahydro-1H-cyclopropa[3,4]cyclopenta[1,2-c]pyrazol-1-yl)-N-((S)-2-(3,5-difluorophenyl)-1-(3-(4-(morpholinosulfonyl)phenyl)-4-oxo-7-(pyrimidin-2-yl)-3,4-dihydroquinazolin-2-yl)ethyl)acetamide]?
**A.** EC50 [1, 3]: 5.8 nM; CC50 at 4 day [2]: > 1000 nM

**Q.** For `O=C(Cn1nc(C(F)F)c2c1C(F)(F)[C@@H]1C[C@H]21)N[C@@H](Cc1cc(F)cc(F)c1)c1nc2cc(-c3cc(F)ccc3F)ccc2c(=O)n1-c1ccc(S(=O)(=O)N2CCOCC2)cc1` [Example 29, 2-((3bS,4aR)-3-(difluoromethyl)-5,5-difluoro-3b,4,4a,5-tetrahydro-1H-cyclopropa[3,4]cyclopenta[1,2-c]pyrazol-1-yl)-N-((S)-2-(3,5-difluorophenyl)-1-(7-(2,5-difluorophenyl)-3-(4-(morpholinosulfonyl)phenyl)-4-oxo-3,4-dihydroquinazolin-2-yl)ethyl)acetamide], which EC50 [1, 3] is on record?
**A.** 2.9 nM

**Q.** And the CC50 at 4 day [2]?
**A.** > 1000 nM

**Q.** For `COc1ccc(-c2ccc3c(=O)n(-c4ccc(S(=O)(=O)N5CCOCC5)cc4)c([C@H](Cc4cc(F)cc(F)c4)NC(=O)Cn4ccc(C5CC5)n4)nc3c2)cn1` [Example 32, (S)-2-(3-cyclopropyl-1H-pyrazol-1-yl)-N-(2-(3,5-difluorophenyl)-1-(7-(6-methoxypyridin-3-yl)-3-(4-(morpholinosulfonyl)phenyl)-4-oxo-3,4-dihydroquinazolin-2-yl)ethyl)acetamide], which EC50 [1, 3] is on record?
**A.** 5.8 nM

**Q.** And the CC50 at 4 day [2]?
**A.** > 1000 nM

**Q.** Which results are given for `O=C(Cn1ccc(C2CC2)n1)N[C@@H](Cc1cc(F)cc(F)c1)c1nc2cc(-c3c(F)cccc3F)ccc2c(=O)n1-c1ccc(S(=O)(=O)N2CCOCC2)cc1` [Example 37, (S)-2-(3-cyclopropyl-1H-pyrazol-1-yl)-N-(2-(3,5-difluorophenyl)-1-(7-(2,6-difluorophenyl)-3-(4-(morpholinosulfonyl)phenyl)-4-oxo-3,4-dihydroquinazolin-2-yl)ethyl)acetamide]?
**A.** EC50 [1, 3]: 8.8 nM; CC50 at 4 day [2]: > 1000 nM

**Q.** Which results are given for `O=C(Cn1ccc(C2CC2)n1)N[C@@H](Cc1cc(F)cc(F)c1)c1nc2cc(-c3ccccc3Oc3ccccc3)ccc2c(=O)n1-c1ccc(S(=O)(=O)N2CCOCC2)cc1` [Example 42, (S)-2-(3-cyclopropyl-1H-pyrazol-1-yl)-N-(2-(3,5-difluorophenyl)-1-(3-(4-(morpholinosulfonyl)phenyl)-4-oxo-7-(2-phenoxyphenyl)-3,4-dihydroquinazolin-2-yl)ethyl)acetamide]?
**A.** EC50 [1, 3]: 54 nM; CC50 at 4 day [2]: > 1000 nM
